Reference: patent publication US5142051A, “N-phosphonylmethoxyalkyl derivatives of pyrimidine and purine bases and a therapeutical composition therefrom with antiviral activity” (Ceskoslovenska Akademie Ved, priority 1986, dated 1992)
Values after ≈ are worked out from the molar mass of the structure shown. Like-named read-outs stand apart in the source and are kept apart here.

Assays:
[1] = tested on: vaccinia virus (VV); experiment: microbe, parasite or virus in culture; type: cell-based; settings: Orthopoxvirus vaccinia, PRK, read-out: MIC50
[2] = tested on: HSV-1 TK^- (Cheng); experiment: Inhibition of virus-induced cytopathic effect in PRK-cells, HSV-1 TK^- (Cheng); type: cell-based; settings: Human alphaherpesvirus 1, PRK, read-out: MIC50
[3] = tested on: HSV-2 (196); experiment: Inhibition of virus-induced cytopathic effect in PRK-cells, HSV-2 (196); type: cell-based; settings: read-out: MIC50
[4] = tested on: HSV-1 (F); experiment: Inhibition of virus-induced cytopathic effect in PRK-cells, HSV-1 (F); type: cell-based; settings: read-out: MIC50
[5] = Cytotoxicity: observable morphological changes in uninfected tissue culture cells; settings: rabbit, prk cells
[6] = tested on: HSV-1 (McIntyre); experiment: Inhibition of virus-induced cytopathic effect in PRK-cells, HSV-1 (McIntyre); type: cell-based; settings: read-out: MIC50
[7] = tested on: HSV-1 (KOS); experiment: Inhibition of virus-induced cytopathic effect in PRK-cells, HSV-1 (KOS); type: cell-based; settings: read-out: MIC50
[8] = tested on: HSV-1 TK^- (Field); experiment: Inhibition of virus-induced cytopathic effect in PRK-cells, HSV-1 TK^- (Field); type: cell-based; settings: Human alphaherpesvirus 1, PRK, read-out: MIC50
[9] = tested on: HSV-2 (G); experiment: Inhibition of virus-induced cytopathic effect in PRK-cells, HSV-2 (G); type: cell-based; settings: read-out: MIC50
[10] = tested on: HSV-2 (Lyons); experiment: Inhibition of virus-induced cytopathic effect in PRK-cells, HSV-2 (Lyons); type: cell-based; settings: read-out: MIC50
[11] = tested on: vaccinia virus; type: cell-based; settings: in words
[12] = tested on: TK^- mutants of herpes viruses type 1 and 2; experiment: Antiviral effect against TK^- mutants of herpes viruses; type: cell-based; settings: in words
[13] = tested on: strains or mutants devoid of thymidine kinase; settings: in words; cited from earlier work
[14] = tested on: DNA viruses; settings: background statement, in words; cited from earlier work
[15] = in words; cited from earlier work
[16] = Human alphaherpesvirus 2, HSV-2 (196), PRK-cells, 50% inhibition of cytopathic effect
[17] = Human alphaherpesvirus 1, HSV-1 (F), PRK-cells, 50% inhibition of cytopathic effect
[18] = Human alphaherpesvirus 1, HSV-1 (McIntyre), PRK-cells, 50% inhibition of cytopathic effect
[19] = Human alphaherpesvirus 1, HSV-1 (KOS), PRK-cells, 50% inhibition of cytopathic effect
[20] = Human alphaherpesvirus 2, HSV-2 (G), PRK-cells, 50% inhibition of cytopathic effect
[21] = Human alphaherpesvirus 2, HSV-2 (Lyons), PRK-cells, 50% inhibition of cytopathic effect

Structure (SMILES)	EC50 [1] [µg/mL]	EC50 [3, 16] [µg/mL]	EC50 [4, 17] [µg/mL]	MCC [5] [µg/mL]	EC50 [6, 18] [µg/mL]	EC50 [7, 19] [µg/mL]	EC50 [8] [µg/mL]	EC50 [9, 20] [µg/mL]	EC50 [10, 21] [µg/mL]	also measured
Cc1cn(C[C@@H](CO)OCP(=O)(O)O)c(=O)[nH]c1=O [Thymin-1-yl, (S)--CH2 OH]	300 (≈ 1020 µM)	150 (≈ 510 µM)	150 (≈ 510 µM)	400	70 (≈ 238 µM)	70 (≈ 238 µM)	200 (≈ 680 µM)	20 (≈ 68 µM)	70 (≈ 238 µM)	EC50 [2]: 400 µg/mL (≈ 1360 µM)
Nc1ncnc2c1ncn2CCOCP(=O)(O)O [PMEA, 9-(2-phosphonylmethoxyethyl)adenine]	–	–	–	–	–	–	–	–	–	effect against vaccinia virus [11]: highly effective; effect against TK^- mutants of herpes viruses type 1 and 2 [12]: highly effective; effect where Zovirax, DHPG fail [13]: effective even in those cases where the above-mentioned drugs fail; antiviral activity [14]: very potent antivirals, acting specifically against DNA viruses
Nc1nc2c(ncn2CC(CO)OCP(=O)(O)O)c(=O)[nH]1 (racemic) [Guanin-9-yl, (RS)--CH2 OH]	2 (≈ 6.27 µM)	20 (≈ 62.7 µM)	7 (≈ 21.9 µM)	400	2 (≈ 6.27 µM)	20 (≈ 62.7 µM)	10 (≈ 31.3 µM)	20 (≈ 62.7 µM)	20 (≈ 62.7 µM)	–
Nc1nc2c(ncn2CCOCP(=O)(O)O)c(=O)[nH]1 [Guanin-9-yl, H]	7 (≈ 24.2 µM)	2 (≈ 6.92 µM)	2 (≈ 6.92 µM)	40	2 (≈ 6.92 µM)	7 (≈ 24.2 µM)	–	4 (≈ 13.8 µM)	7 (≈ 24.2 µM)	–
O=c1[nH]c(=O)n([C@H]2C[C@H](O)[C@@H](CO)O2)cc1C=CBr [5-(2-Bromovinyl)-2'-deoxyuridine, 5-(2-bromovinyl)-2' -deoxyuridine, reference compound]	7 (≈ 21 µM)	–	–	400	–	–	–	–	–	sensitivity of strains or mutants devoid of thymidine kinase [13]: usually also resistant; EC50 ([3]; Human alphaherpesvirus 2, PRK): 1 µg/mL (≈ 3 µM); EC50 ([4]; Human alphaherpesvirus 1, PRK): 0.02 µg/mL (≈ 0.06 µM); EC50 ([6]; Human alphaherpesvirus 1, PRK): 0.02 µg/mL (≈ 0.06 µM); EC50 ([7]; Human alphaherpesvirus 1, PRK): 0.02 µg/mL (≈ 0.06 µM); EC50 ([9]; Human alphaherpesvirus 2, PRK): 4 µg/mL (≈ 12 µM); EC50 ([10]; Human alphaherpesvirus 2, PRK): 10 µg/mL (≈ 30 µM)
Nc1ncnc2c1ncn2C[C@@H](CO)OCP(=O)(O)O [Adenin-9-yl, (S)--CH2 OH, 9-(S)-(2-phosphonylmethoxy-3-hydroxypropyl)adenine, reference compound]	7 (≈ 23.1 µM)	7 (≈ 23.1 µM)	7 (≈ 23.1 µM)	100	1 (≈ 3.3 µM)	20 (≈ 66 µM)	–	20 (≈ 66 µM)	20 (≈ 66 µM)	effect against vaccinia virus [11]: highly effective; effect against TK^- mutants of herpes viruses type 1 and 2 [12]: highly effective; effect where Zovirax, DHPG fail [13]: effective even in those cases where the above-mentioned drugs fail; antiviral activity [14]: very potent antivirals, acting specifically against DNA viruses
Nc1nc2c(ncn2COCCO)c(=O)[nH]1 [Zovirax]	–	–	–	–	–	–	–	–	–	sensitivity of strains or mutants devoid of thymidine kinase [13]: not sensitive
NNc1ncnc2c1ncn2CC(CO)OCP(=O)(O)O (racemic) [6-Hydrazinopurin-9-yl, (RS)--CH2 OH]	20 (≈ 62.8 µM)	70 (≈ 220 µM)	70 (≈ 220 µM)	400	70 (≈ 220 µM)	150 (≈ 471 µM)	40 (≈ 126 µM)	70 (≈ 220 µM)	70 (≈ 220 µM)	–
Nc1nc(N)c2ncn(C[C@@H](CO)OCP(=O)(O)O)c2n1 [2-Aminoadenin-9-yl, (S)--CH2 OH]	0.7 (≈ 2.2 µM)	7 (≈ 22 µM)	7 (≈ 22 µM)	200	2 (≈ 6.28 µM)	20 (≈ 62.8 µM)	–	4 (≈ 12.6 µM)	7 (≈ 22 µM)	–
Nc1ccn(C[C@@H](CO)OCP(=O)(O)O)c(=O)n1 [Cytosin-1-yl, (S)--CH2 OH]	0.2 (≈ 0.716 µM)	–	–	100	–	–	7 (≈ 25.1 µM)	–	–	EC50 [2]: 10 µg/mL (≈ 35.8 µM); EC50 ([3]; Human alphaherpesvirus 2, PRK): 2 µg/mL (≈ 7.16 µM); EC50 ([4]; Human alphaherpesvirus 1, PRK): 2 µg/mL (≈ 7.16 µM); EC50 ([6]; Human alphaherpesvirus 1, PRK): 1 µg/mL (≈ 3.58 µM); EC50 ([7]; Human alphaherpesvirus 1, PRK): 7 µg/mL (≈ 25.1 µM); EC50 ([9]; Human alphaherpesvirus 2, PRK): 20 µg/mL (≈ 71.6 µM); EC50 ([10]; Human alphaherpesvirus 2, PRK): 20 µg/mL (≈ 71.6 µM)
Nc1nc(N)c2ncn(CCOCP(=O)(O)O)c2n1 [2-Aminoadenin-9-yl, H]	70 (≈ 243 µM)	2 (≈ 6.94 µM)	2 (≈ 6.94 µM)	200	2 (≈ 6.94 µM)	7 (≈ 24.3 µM)	–	2 (≈ 6.94 µM)	2 (≈ 6.94 µM)	–
Nc1nc2c(ncn2COC(CO)CO)c(=O)[nH]1 [DHPG, 9-(1,3-dihydroxy-2-propoxymethyl)guanine]	–	–	–	–	–	–	–	–	–	water-solubility [15]: low water-solubility; sensitivity of strains or mutants devoid of thymidine kinase [13]: not sensitive
Nc1nccc2c1ncn2C[C@@H](CO)OCP(=O)(O)O [3-Deazaadenin-9-yl, (S)--CH2 OH]	–	0.7 (≈ 2.32 µM)	0.2 (≈ 0.662 µM)	40	0.7 (≈ 2.32 µM)	0.2 (≈ 0.662 µM)	–	0.1 (≈ 0.331 µM)	0.2 (≈ 0.662 µM)	–
O=P(O)(O)COC(CO)Cn1cnc2c(NO)ncnc21 (racemic) [6-Hydroxylaminopurin-9-yl, (RS)--CH2 OH]	7 (≈ 21.9 µM)	20 (≈ 62.7 µM)	20 (≈ 62.7 µM)	400	7 (≈ 21.9 µM)	20 (≈ 62.7 µM)	–	20 (≈ 62.7 µM)	20 (≈ 62.7 µM)	–
Nc1ncc2ncn(CCOCP(=O)(O)O)c2n1 [2-Aminopurin-9-yl, H]	200 (≈ 732 µM)	20 (≈ 73.2 µM)	70 (≈ 256 µM)	200	70 (≈ 256 µM)	70 (≈ 256 µM)	150 (≈ 549 µM)	20 (≈ 73.2 µM)	7 (≈ 25.6 µM)	EC50 [2]: 150 µg/mL (≈ 549 µM)
